One data set deals with Vero cells. The experiment in a line: MTT assay, antiproliferative activity against Vero cells. Type of data set: cell-based, African green monkey. The conditions noted are these: Chlorocebus sabaeus, 72 h, triplicate, mean ± SD, normal cells. The protocol: (§1) The antiproliferative activity was evaluated by MTT (3-(4,5-dimethylthiazol-2-yl)-2,5-diphenyl tetrazolium bromide) assay. Four cancer cell lines; human cervical carcinoma (HeLa), human colon carcinoma (HT29 and HCT116) and human breast carcinoma (MCF-7), along with African green monkey kidney cells (Vero cells) were seeded in 96-well plates (8000 cells/well) and cultured for 24 h, followed by being treated with the selected compounds at 100 µg/mL for 72 h. Following this, 10 μL of MTT reagent (5 mg/mL in phosphate buffer solution (PBS)) was added to each well and further incubated at 37 °C for 2 h. Then, 100 μL of DMSO (dimethyl sulfoxide) was used to dissolve the formazan dye. Finally, the absorbance of the solution was measured using a microplate reader (Bio-Rad Laboratories, Hercules, CA) at wavelengths of 550 and 655 nm. The absorbance at 655 nm was used as a reference wavelength. […] Cisplatin was used as the positive control drug.

In a further data set the test system is HCT116. The experiment in a line: MTT assay, antiproliferative activity against HCT116. Type of data set: cell-based, human. The conditions noted are these: for IC50: Homo sapiens, HCT-116, MTT, 72 h, triplicate, mean ± SD; for toxicity in words, HCT116: MTT assay. The protocol:
as §1

The next data set deals with HT29. The experiment in a line: MTT assay, antiproliferative activity against HT29. Type of data set: cell-based, human. The conditions noted are these: for IC50: Homo sapiens, HT-29; for toxicity in words, HT29: MTT assay. The method, then: as §1
Background: Tetrazolium assays rely on reduction of a dye to a coloured formazan, in cell work by metabolically active cells.

In the next data set the test system is MCF-7. In words: MTT assay, antiproliferative activity against MCF-7. The data set is classed as cell-based, human. Particulars: triplicate, mean ± SD; for IC50: Homo sapiens, MCF7, 72 h. The protocol:
as §1

A further data set relates to HeLa. The experiment in a line: MTT assay, antiproliferative activity against HeLa. The data set is classed as cell-based, human. The conditions noted are these: for IC50: Homo sapiens, HeLa; for toxicity in words, HeLa: MTT assay. The method, then: as §1
The subject of data set [1] is cancer cell lines (HCT116, HT29, MCF-7 and HeLa). The experiment in a line: MTT assay, all four cancer cell lines together. The data set is classed as cell-based, human. The method, then:
as §1

Data set [2] deals with HCT116, HT29, MCF-7, HeLa and Vero cells. The experiment in a line: MTT assay, all cancer cells and normal cells together. Type of data set: cell-based. The protocol:
as §1

Setting [3] is: MTT, 72 h, triplicate, mean ± SD.

Each structure is given as a SMILES string. Converted amounts (≈) assume the structure as drawn. “Also recorded” adds a separate entry of the source.

Broadly, the IC50 is the midpoint of a concentration-inhibition curve. With `COC(=O)c1ccc(O)c2c1C[C@@H](C)OC2=O` [Compound 4, (-)-5-methoxycarbonylmellein], the IC50 in the data set with Vero cells, in the data set with HCT116, in the data set on HT29 (setting [3]), with MCF-7 and in the data set with HeLa (setting [3]) was above 100 µg/mL throughout.

In the case of `C[C@@H]1Cc2c(C(=O)O)ccc(O)c2C(=O)O1` [Compound 5, (−)-5-carboxymellein], the IC50 in the data set with Vero cells was above 100 µg/mL; in the data set on HCT116, 54.9 ± 3.35 µg/mL (≈ 247 µM); in the data set on HT29 (setting [3]), 72.6 ± 2 µg/mL (≈ 327 µM); in the data set on MCF-7 it was above 100 µg/mL; in the data set with HeLa (setting [3]), 57.8 ± 1.26 µg/mL (≈ 260 µM). Further, the “toxicity in words, HCT116” value in the data set with HCT116 is recorded as “slightly toxic”. The “toxicity in words, HT29” value with HT29 was “slightly toxic”. In addition, the “toxicity in words, HeLa” value with HeLa was “slightly toxic”.

`COc1cc(O)c2c(c1)C[C@H](C[C@H]1CCC[C@H](C)O1)OC2=O` [Compound 20, asperentin-6-O-methylether]: the 50% inhibitory concentration (IC50) with Vero cells was above 100 µg/mL; in the data set with HCT116 it was 8.69 ± 0.69 µg/mL (≈ 28.4 µM); in the data set with HT29 (setting [3]), 33.3 ± 4.42 µg/mL (≈ 109 µM); in the data set with MCF-7 it was 11.7 ± 0.82 µg/mL (≈ 38.2 µM); in the data set on HeLa (setting [3]) it was 4.98 ± 0.4 µg/mL (≈ 16.3 µM). Moreover, in data set [1], the “antiproliferative activity in words, all cancer cells” value is recorded as “significantly toxic; also recorded: moderate anti-proliferation”.

Regarding `C[C@H]1CCC[C@H](C[C@H]2Cc3cc(O)cc(O)c3C(=O)O2)O1` [Compound 18, asperentin], the IC50 in the data set with Vero cells was 8.77 ± 0.91 µg/mL (≈ 30 µM); in the data set with HCT116 it was 2.42 ± 0.2 µg/mL (≈ 8.28 µM); in the data set on HT29 (setting [3]), 4.51 ± 0.13 µg/mL (≈ 15.4 µM); with MCF-7 it was 10.1 ± 0.52 µg/mL (≈ 34.5 µM); in the data set on HeLa (setting [3]) it was 2.09 ± 0.16 µg/mL (≈ 7.15 µM); in data set [2] (range over HCT116, HT29, MCF-7, HeLa and Vero cells, read-out: IC50 range against all cancer cells and normal cells), 2.09 to 10.1 µg/mL (≈ 7.15 to 34.5 µM). For the same compound, the “antiproliferative activity in words, all cancer cells and normal cells” value in data set [2] (MTT assay) was “strong broad spectrum”. For the same compound, the “antiproliferative activity in words, all cancer cells” value in data set [1] is recorded as “significantly toxic”.

With `COc1cc2oc3cc(O)cc(O)c3c2c(C)c1O` [Compound 1, 1,3,8-trihydroxy-7-methoxy-9-methyldibenzofuran], the IC50 with Vero cells is 25 ± 0.63 µg/mL (≈ 96.1 µM); with HCT116 it was 14.4 ± 0.87 µg/mL (≈ 55.2 µM); with HT29 (setting [3]), 8.99 ± 1.96 µg/mL (≈ 34.5 µM); in the data set with MCF-7 it was 18.4 ± 0.99 µg/mL (≈ 70.7 µM); with HeLa (setting [3]), 16.7 ± 0.55 µg/mL (≈ 64.1 µM). Also, in data set [1], the “antiproliferative activity in words, all cancer cells” value is “moderate anti-proliferation”.

Take `COc1cc(O)cc2c1C(=O)O[C@@H](C[C@H]1CCC[C@H](C)O1)C2` [Compound 19, asperentin-8-O-methylether]: the IC50 was above 100 µg/mL with Vero cells; 66.5 ± 7.68 µg/mL (≈ 217 µM) in the data set with HCT116; above 100 µg/mL with HT29 (setting [3]); above 100 µg/mL in the data set on MCF-7; above 100 µg/mL in the data set on HeLa (setting [3]).

The term melting point denotes the temperature of the solid-liquid transition. `COC(=O)c1cc(OC)c(O)c2c1C[C@@H](C)OC2=O` [Compound 2, (3R)-7-methoxy-5-methoxycarbonylmellein] had a melting point of 135 to 136 °C. In the data set on Vero cells, this compound gave a concentration for half-maximal inhibition (IC50) above 100 µg/mL. This compound also displayed a half-inhibitory concentration (IC50) in the data set with HCT116 of 92.9 ± 2.7 µg/mL (≈ 349 µM). In the data set with HT29 (setting [3]), this compound gave an IC50 of 96.4 ± 3.37 µg/mL (≈ 362 µM). This compound displayed a concentration for half-maximal inhibition (IC50) with MCF-7 above 100 µg/mL. This compound showed a half-maximal inhibitory concentration (IC50) in the data set with HeLa (setting [3]) above 100 µg/mL.

Consider `N.N.[Cl][Pt][Cl]` [Cisplatin, reference compound], for which, in the data set with HT29 (setting [3]), the “Antiproliferative activity, IC50 ± SD, HT29” value was 1.59 ± 0.07 µg/mL. The “Antiproliferative activity, IC50 ± SD, MCF-7” value in the data set on MCF-7 (72 h) stood at 3.13 ± 0.26 µg/mL. Also, the “Antiproliferative activity, IC50 ± SD, HeLa” value in the data set on HeLa (setting [3]) is 1.93 ± 0.04 µg/mL.

Regarding `C[C@H]1CCC[C@H](Cc2cc(O)cc(O)c2)O1` [Compound 17, (2′R,6′S)-5-((-6-methyltetrahydro-2H-pyran-2-yl)methyl)benzene-1,3-diol], the IC50 in the data set on Vero cells is above 100 µg/mL; with HCT116, 17.5 ± 1.29 µg/mL (≈ 78.7 µM); with HT29 (setting [3]) it was 19.5 ± 0.77 µg/mL (≈ 87.7 µM); in the data set on MCF-7, 50.2 ± 3.85 µg/mL (≈ 226 µM); with HeLa (setting [3]), 13.5 ± 1.15 µg/mL (≈ 60.9 µM). Moreover, in data set [1], the “antiproliferative activity in words, all cancer cells” value is “moderate anti-proliferation”.

In the case of `C[C@@H]1O[C@@H](C[C@H]2Cc3cc(O)cc(O)c3C(=O)O2)CC[C@@H]1O` [Compound 21, 5′-hydroxyasperentin], the half-inhibitory concentration (IC50) in the data set with Vero cells, in the data set with HCT116, in the data set with HT29 (setting [3]), in the data set with MCF-7 and with HeLa (setting [3]) was above 100 µg/mL in each case.

For the compound `COc1cc(O)cc2c1C(=O)O[C@H](C[C@H]1CCC[C@@H](C)O1)C2` [Compound 15, (3S,2′R,6′R)-asperentin-8-O-methylether], the IC50 was above 100 µg/mL in the data set with Vero cells; 45.1 ± 3.65 µg/mL (≈ 147 µM) with HCT116; 67.6 ± 6.99 µg/mL (≈ 221 µM) in the data set on HT29 (setting [3]); above 100 µg/mL with MCF-7; 92.9 ± 2.7 µg/mL (≈ 303 µM) in the data set on HeLa (setting [3]). Also, the “toxicity in words, HCT116” value in the data set on HCT116 is reported as “slightly toxic”. Moreover, the “toxicity in words, HT29” value in the data set on HT29 is recorded as “slightly toxic”. In the data set on HeLa, the “toxicity in words, HeLa” value is “slightly toxic”.

Consider `C[C@H]1C[C@@H](O)C[C@H](C[C@H]2Cc3cc(O)cc(O)c3C(=O)O2)O1` [Compound 22, 4′-hydroxyasperentin], for which the IC50 in the data set with Vero cells, with HCT116, with HT29 (setting [3]), in the data set on MCF-7 and with HeLa (setting [3]) was above 100 µg/mL each time.

For `C[C@@H]1Cc2cccc(O)c2C(=O)O1` [Compound 3, (−)-mellein], the IC50 with Vero cells, with HCT116, with HT29 (setting [3]), in the data set with MCF-7 and with HeLa (setting [3]) was above 100 µg/mL each time.
